# Measured values: patent US11617748B2, “Meclozine derivatives and diclazuril derivatives for use in the prevention and/or the treatment of disorders associated to the inflammation induced by P. acnes” (priority 2016, dated 2023)
# Tests used:
# IL-1β mRNA = test: RT-qPCR of P. acnes-induced IL-1β mRNA in ThP-1 cells; assay type: cell-based, human; conditions: 10 μM, 24 h pre-treatment, 5 h P. acnes
# Experimental: RT-qPCR assay. […] Total RNA was isolated using the NucleoSpin RNA and treated with DNAse I, according to the manufacturer's instructions (Macherey-Nagel, Hoerdt, France). RNA concentration was determined at 260 nm on a nanodrop (Labtech, France) and the ratios for all samples were ranging between 1.6 and 1.9. Complementary DNA were generated from 100 ng of total RNA at 50° C. for 10 min followed by the quantitative PCR analysis, carried out in the LightCycler Nano (Roche), and performed with the iTaq Universal SYBR Green One-Step kit (Bio-Rad Laboratories, Hercules, Calif., USA) with a 2-step cycles conditions set at 95° C. for 60 s followed by 40 cycles of 95° C. for 15 s, 68° C. for 60 s, and ended by a melting curve at 65-95° C., 60 s with 0.1° C./s. From the amplification curves, the threshold cycles (Ct) are determined for the studied genes. The amount of relative RNA in stimulated cells relative to control cells is calculated according to the method of 2Act and expressed as a relative fold change expression normalized to gene expression of internal control (GAPDH). IL-8 primers were used: sens 5′-[sequence]-3′, anti-sens 5′-[sequence]-3′ and GAPDH primers: sens 5′-[sequence]-3′, GADPH anti-sens 5′-[sequence]-3′. Sample quantification was made in triplicate.
# Controls experiments were done with unpretreated/unstimulated cell and with P. acnes stimulated cells only.
# PPARα = test: Western blot of PPARα expression in P. acnes-stimulated HaCaT cells; assay type: cell-based, human; conditions: 25 μM, 24 h pre-treatment
# Experimental: Western Blot analysis. Whole cell protein extracts (25 μg) were separated by electrophoresis (LDS-PAGE) under denaturing conditions with NuPAGE Novex 4-12% Bis-Tris gel (1 mm, 12 wells, Invitrogen, UK) and proteins were transferred onto nitrocellulose membranes and saturated in 20 ml of saturation buffer consisting of TBS 1× (Tris Buffered Saline) containing 200 mM Tris, 1.4 M NaCl (pH 7.6), 5% no fat milk, 0.1% Tween 20 for 1 h. […] After washing to remove unbound antibodies, bound primary antibodies were detected by incubation for 1 h using secondary antibody against rabbit- and mouse IgG (Santa Cruz Biotechnology, SC-2357, 1:5000 and SC-2005, 1:5000, respectively). Unbound material was removed by washing and peroxidase activity was detected in a chemiluminescence assay (WesternBright ECL, Advansta, Menlo Park, USA). […]
# IL-8 production [1] = test: PGN-induced IL-8 production in HaCaT keratinocytes (ELISA); assay type: cell-based, human; conditions: 6.25 μM, 24 h pre-treatment, PGN 5, 10, 20 μg/ml for 18 h
# Experimental: (§1) ELISA. Human IL-1β, IL-8, hBD-2 and TNF-α protein concentration were measured in the supernatants of stimulated cells using various ELISA Sets (all from Ready-Set-Go from eBioscience, except hBD-2 measurements: Human DEFB4A/BD-2 ELISA Kit from LSBio) according to the manufacturer's instructions. We used serial dilutions of recombinant human IL-1β, IL-8, hBD-2 and TNF-α for standard curve. The optical density was determined at 450 nm at a wavelength correction of 540 nm.
# Previously it has been shown that diclazuril and meclozine were able to inhibit IL-8 and IL-1β productions at the transcriptional and […] levels in pretreated cells stimulated with P. acnes. Here, it is investigated if the nature of the cell stimuli would have an impact on the diclazuril and meclozine effects on the IL-8 and IL-1β productions. Both, HaCaT and ThP-1 cell lines were pretreated with several concentrations of diclazuril and meclozine ranging from 0.39 to 25 μM for 24 h, and then stimulated with 3 different concentrations of peptidoglycanne (PGN) and lipoteicoic acid (LTA) at 5, 10 and 20 μg/ml for 18 h at 37° C. […] Pretreatment of keratinocytes with diclazuril decreased the production of IL-8 by an average of 65% at 6.25 μM regardless of the initial PGN dose used (FIG. 5A). Same results were obtained with meclozine and at 6.25 μM the IL-8 production was reduced by 60% (FIG. 5B).
# [2] = tested on: P. acnes-induced ear inflammation; test: In vivo model of P. acnes-induced inflammation in mouse ears; conditions: mice; for decrease of the ear inflammation: topical, each day for 3 days, score over 96 h
# Experimental: This model is based on the capacity of mouse ears to react while P. acnes is intradermally injected. The inflammatory reaction is evaluated each day over a period of 4 days after P. acnes injection by measuring the thickness of the ears, the redness as well as the presence of a desquamation and/or small pustules. At the end of the experiment, final measurement of inflammation was realized and photographic pictures of ears were taken. Then, mice were euthanized and ears were immediately fixed in a formalin-containing buffer for a future histological analysis. The experimental design consisted of 3 groups containing 10 mice each. 1) PBS corresponds to the non-treated group injected with PBS. 2) PA+Vehicle TOPIC corresponds to P. acnes injected in ears treated with Vaseline alone. 3) PA+diclazuril corresponds to P. acnes injected in ears treated with 1.3% diclazuril mixed with Vaseline. The preparation of the 1.3% diclazuril gel consisted of extemporaneously gently mixing 6.5 mg of diclazuril with […] for 1 min at room temperature (21° C.) and then directly applied to the mouse ears. This model is based on the capacity of mouse ears to react while P. acnes is intradermally injected. The inflammatory reaction is evaluated each day over a period of 4 days after P. acnes injection by measuring the thickness of the ears, the redness as well as the presence of a desquamation and/or small pustules. At the end of the experiment, final measurement of inflammation was realized and photographic pictures of ears were taken. Then, mice were euthanized and ears were immediately fixed in a formalin-containing buffer for a future histological analysis.
# hBD-2 production = hBD-2 production by M5-stimulated NHDK, in vitro psoriasis-like model (ELISA); assay type: cell-based, human; conditions: NHDK + M5, 48 h
# Experimental: Cell culture, pretreatment and stimulation.
# as §1
# IL-8 production [3] = test: P. acnes-induced IL-8 production in HaCaT keratinocytes (ELISA); assay type: cell-based, human; conditions: HaCaT cells pre-treated 24 h, no P. acnes stimulation
# [4] = 1% meclozine gel topical, vs PA+Vehicle
Structure (SMILES),inhibition of IL-1β mRNA production (IL-1β mRNA),expression of PPARα (PPARα),decrease of PGN-induced IL-8 production (IL-8 production [1]) [%],"decrease of the ear inflammation ([2]; 1% meclozine gel (Vaseline, DMSO, Solutol/water)) [%]","ear thickness (histological analysis) [2, 4]","leukocyte infiltration (histological analysis) [2, 4]","effect on hBD-2 production, in words (hBD-2 production; 0.39 to 12.5 μM)",IL-8 production in pretreated cells without being stimulated (IL-8 production [3]),decrease of the ear inflammation ([2]; 1.3% diclazuril in Vaseline) [%],decrease of hBD-2 production (hBD-2 production; at 12.5 μM) [%]
"Cc1cccc(CN2CCN(C(c3ccccc3)c3ccc(Cl)cc3)CC2)c1 (centres unmarked) [meclozine, Meclozine]",≤ 38%,strongly decrease,60,29.5,decrease,decrease,no effect,no change,,
"N#CC(c1ccc(Cl)cc1)c1c(Cl)cc(-n2ncc(=O)[nH]c2=O)cc1Cl (centres unmarked) [diclazuril, Diclazuril]",up to 91%,no change,65,,,,,no change,37,68
